According to patent US6903121B1, “TREATMENT OF TUMORS WITH ACETYLENES DISUBSTITUTED WITH A PHENYL OR HETEROAROMATIC GROUP AND A SUBSTITUTED CHROMANYL, THIOCHROMANYL OR TETRAHYDROQUINOLINYL GROUP IN COMBINATION WITH OTHER ANTI-TUMOR AGENTS” (Allergan, Inc., priority 2000, dated 2005):
“Also recorded” adds a separate entry of the source.

What was measured:
carcinoma cell lines = details: in some of the cell lines; Fanjul et al. 1996; cited from earlier work
[1] = tested on: MCF-7 human breast cancer lines; details: Toma et al. 1997; cited from earlier work
HL-60 cells = test: Cell proliferation assay (MTT) in HL-60 leukemia cell line; assay type: cell-based, human
Method: (§1) The SK-BR-3, T47D and HL-60 cell cultures in which the assay procedures were performed are also well known and are available from sources well known in the art. Specifically, as is known, T47D is an estrogen receptor positive (ER^+) human breast cancer cell line, and SK-BR-3 is an estrogen receptor negative (ER^−) human breast cancer cell line. HL-60 is a well known human myeloid leukemia cell line. The assay procedure for the breast cancer lines itself is well known in the art and involves determining incorporation of 5-bromo-2′-deoxyuridine (BrdU) into the cells. As is known, incorporation of less BrdU represents less cell proliferation (inhibition of cell proliferation), and this assay is accepted in the art as a measure of anti-proliferative or anti-tumor activity of the assayed agent or agents. The assay procedure for the HL-60 cell line is also well-known in the art. It involves measuring the concentration of formazan dye which is cleaved from 3-[4,5-dimethylthiazole-2-yl]-2,5-diphenyltetrazolium bromide by viable HL-60 cells.
The human myeloid leukemia cell line HL-60 was cultured in Iscove's modified Dulbecco's medium (IMDM Gibco BRL, Gaithersburg, Md.) supplemented with 10% fetal bovine serum (HyClone, Logan, Utah), 2 mM L-glutamine and 1% antibiotics-antimycotics (Gibco BRL). HL-60 cells were obtained from the American Type Culture Collection (ATCC, Rockville, Md., CCL-240). Cells were cultured at 37° C. in a humidified atmosphere containing 5% CO2.
Proliferation of the HL-60 leukemia cell line was determined by a cell viability and non-radioactive commercial cell proliferation kit (MTT assay; Roche Diagnostics, Indianapolis, Ind.), essentially by following the instructions of the manufacturer. Cells were seeded into 96-well tissue culture plates (Corning Incorporated, Corning, N.Y.) at a concentration of 1000 cells/well. After 24 hours, the cells were treated continuously with tazarotene (Formula 3) and/or IFNs or solvent alone. […] The quantification of viable cells, capable of cleaving MTT to form a formazan dye, was assessed by measuring absorbance at 590 nm. […]
The growth inhibition observed for a combined treatment with tazarotene (Formula 3) and IFNs was analyzed for both synergistic and additive effects. […] The mathematical multiplication of the two surviving fractions after the treatment of either with tazarotene (Formula 3) or with the respective interferon is the calculated value for simple additivity of both agents in combination. This calculated value is compared to the actual value observed to determine the nature of the combination effect. […] Synergism or inhibition was determined for each experiment individually, with the P value being 0.05 in comparison to the simple additivity hypothesis.

SK-BR-3 cells = test: Cell proliferation assay (BrdU incorporation) in SK-BR-3 breast cancer cells; assay type: cell-based, human
Method: as §1
(§2) The estrogen receptor-positive (ER^+) cell line T-47D and the ER^− cell line SK-BR-3 were cultured in Dulbecco's modification of Eagle's medium (DMEM Gibco BRL, Gaithersburg, Md.) supplemented with 10% fetal bovine serum (HyClone, Logan, Utah), 2 mM L-glutamine and 1% antibiotics-antimycotics (Gibco BRL). Cell lines were obtained from the American Type Culture Collection (ATCC, Rockville, Md., HTB-133 and HTB-30 for T-47D and SK-BR-3, respectively). Cells were cultured at 37 °C in a humidified atmosphere containing 5% CO2.
(§3) Proliferation of cancer cell lines was determined using a commercial cell proliferation kit (Roche Diagnostics), essentially following the instructions of the manufacturer. Cells were seeded into 96-well tissue culture plates (Corning Incorporated, Corning, N.Y.) at a concentration of 3000 cells/well. After 24 hours, cells were treated continuously with tazarotene (Formula 3) and/or interferons (IFNs) or solvent alone. The appropriate concentrations of tazarotene (Formula 3) used in this study were between 10^−11 M and 10^−6M; IFN concentrations were between 10 and 1000 Unit/ml. Culture media were changed every 72 hours. After 7 days, 10 μl of 5-bromo-2′-deoxyuridine (BrdU) was added to each well. Incubation with BrdU was stopped 24 hours later by adding 100 μl of anti-BrdU antibody to each well. The amount of BrdU incorporated into the DNA of proliferating cells was assessed by measuring absorbance at […]. Each experiment was performed in triplicate in three independent experiments.
(§4) The growth inhibition observed for a combined treatment with tazarotene (Formula 3) and IFNs was analyzed for both synergistic and additive effects. The criteria for these effects have been discussed by three different groups (Aapro et al., Cancer Chemother. Pharmacol., 10: 161-166, 1983, Marth et al. J. Natl Cancer Inst., 77:1197-1202, 1986, Kurbacher et al., Cancer Letters, 103: 183-189, 1996). The mathematical multiplication of the two surviving fractions after the treatment of either with tazarotene (Formula 3) or with the respective interferon is the calculated value for simple additivity of both agents in combination. This calculated value is compared to the actual value observed to determine the nature of the combination effect. […] Synergism or inhibition was determined for each experiment individually, with the P value being 0.05 in comparison to the simple additivity hypothesis.

T-47D cells = test: Cell proliferation assay (BrdU incorporation) in T-47D breast cancer cells; assay type: cell-based, human
Method: as §1, §2, §3, §4

[2] = tested on: MDA-MB 231 human carcinoma cell line; details: Kurbacher et al. 1996; cited from earlier work
[3] = tested on: MCF-7 human carcinoma cell line; details: Kurbacher et al. 1996; cited from earlier work

For `COC(=O)c1ccc(/C(C)=C/c2ccc3c(c2)C(C)(C)CCC3(C)C)cc1` [SRI 11220], which “anti-proliferative activity in combination with interferon” value (carcinoma cell lines) is on record?
Its value is “synergistic”.

For `CC1=C(/C=C/C(C)=C/C=C/C(C)=C/C(=O)O)C(C)(C)CCC1` [all trans retinoic acid], which “combination effect with other chemotherapeutic agents such as tamoxifen (TAM)” value [1] is on record?
Its value is “synergistic effect”.

And the “combination effect with α interferon (α IFN)” value [1]?
Its value is “synergistic effects”.

What does the source list for `CCOC(=O)c1ccc(C#Cc2ccc3c(c2)C(C)(C)CCS3)nc1` [tazarotene, ethyl 6-[2-(4,4-dimethylthiochroman-6-yl)ethynyl]nicotinate]?
anti-proliferative effect of combination with IFNα (combination effect) (HL-60 cells; IFNα constant 100 U/ml, tazarotene varied, FIG. 13): significant synergism; anti-proliferative effect of combination with IFNβ (combination effect) (HL-60 cells; IFNβ constant 100 U/ml, tazarotene varied, FIG. 14): significant synergism; anti-proliferative effect of combination with IFNα (combination effect) (HL-60 cells; tazarotene constant 50 nM, IFNα varied 0 to 1000 U/ml, FIG. 15): significant synergism; anti-proliferative effect of combination with IFNβ (combination effect) (HL-60 cells; tazarotene constant 50 nM, IFNβ varied 0 to 1000 U/ml, FIG. 16): significant synergism; anti-proliferative effect of combination with IFNα (combination effect vs theoretically additive curve) (SK-BR-3 cells; IFNα constant 100 U/ml, tazarotene varied, FIG. 1): synergism; also recorded: synergistic effect; anti-proliferative effect of combination with IFNβ (combination effect) (SK-BR-3 cells; IFNβ constant 10 U/ml, tazarotene varied, FIG. 3): synergism; also recorded: significant synergistic effect; anti-proliferative effect of combination with IFNγ (combination effect) (SK-BR-3 cells; IFNγ constant 100 U/ml, tazarotene varied, FIG. 5): synergism; also recorded: significant synergistic effect; anti-proliferative effect of combination with IFNα (combination effect) (SK-BR-3 cells; tazarotene constant 10 nM, IFNα varied 0 to 1000 U/ml, FIG. 7): striking synergism; anti-proliferative effect of combination with IFNβ (combination effect) (SK-BR-3 cells; tazarotene constant 10 nM, IFNβ varied 0 to 1000 U/ml, FIG. 9): striking synergism; anti-proliferative effect of combination with IFNγ (combination effect) (SK-BR-3 cells; tazarotene constant 10 nM, IFNγ varied 0 to 1000 U/ml, FIG. 11): striking synergism; anti-proliferative effect of combination with IFNα (combination effect) (T-47D cells; IFNα constant 100 U/ml, tazarotene varied, FIG. 2): synergism, although not as striking as in the assays with SK-BR-3 cells; anti-proliferative effect of combination with IFNβ (combination effect) (T-47D cells; IFNβ constant 100 U/ml, tazarotene varied, FIG. 4): synergism; also recorded: synergism, although not as striking as in the assays with SK-BR-3 cells; anti-proliferative effect of combination with IFNγ (combination effect) (T-47D cells; IFNγ constant 100 U/ml, tazarotene varied, FIG. 6): synergism, although not as striking as in the assays with SK-BR-3 cells; anti-proliferative effect of combination with IFNα (combination effect) (T-47D cells; tazarotene constant 10 nM, IFNα varied 0 to 1000 U/ml, FIG. 8): weak synergism; anti-proliferative effect of combination with IFNβ (combination effect) (T-47D cells; tazarotene constant 10 nM, IFNβ varied 0 to 1000 U/ml, FIG. 10): significant synergism

Which “combination effect with certain chemotherapeutic anti-tumor agents” value [2] does the source give for `O=C1O[C@H]([C@@H](O)CO)C(O)=C1O` [vitamin C] here?
The value was “synergistic action”.

What about the “combination effect with certain chemotherapeutic anti-tumor agents” value [3] of the same molecule?
Its value is “synergistic action”.
